Experimental data from ChEMBL document CHEMBL5042507, “One-Pot Procedure for the Synthesis of Asymmetric Substituted Ureido Benzene Sulfonamides as Effective Inhibitors of Carbonic Anhydrase Enzymes” (J Med Chem, 2022).
pKi: −log10 of the molar value. Calls of active or inactive are those of the source. The rule behind the calls is not given here.

What was measured:
[1] = biological target: Carbonic anhydrase 12 (Homo sapiens, UniProt O43570)
Description: Inhibition of human CA12 preincubated for 15 mins by phenol red dye based stopped flow CO2 hydration assay

[2] = tested on: Oryctolagus cuniculus; assay: Antiglaucoma activity in New Zealand albino rabbit assessed as reduction in carbomer-induced intraocular pressure administered topically as eye drops measured at 240 mins post-drug administration by pneumotonometer-analysis; assay type: functional; details: 4 h
[3] = biological target: Carbonic anhydrase 1 (Homo sapiens, UniProt P00915)
Description: Inhibition of human CA1 preincubated for 15 mins by phenol red dye based stopped flow CO2 hydration assay

[4] = biological target: Carbonic anhydrase 9 (Homo sapiens, UniProt Q16790)
Description: Inhibition of human CA9 preincubated for 15 mins by phenol red dye based stopped flow CO2 hydration assay

[5] = tested on: Oryctolagus cuniculus; assay: Antiglaucoma activity in New Zealand albino rabbit assessed as reduction in intraocular pressure administered topically as eye drops measured after 4 hrs by pneumotonometer-analysis; assay type: functional
[6] = tested on: Oryctolagus cuniculus; assay: Antiglaucoma activity in New Zealand albino rabbit assessed as reduction in carbomer-induced intraocular pressure administered topically as eye drops measured at 60 to 120 mins post administration by pneumotonometer-analysis; assay type: functional; details: time 60-120 min
[7] = tested on: Oryctolagus cuniculus; assay: Antiglaucoma activity in New Zealand albino rabbit assessed as reduction in carbomer-induced intraocular pressure administered topically as eye drops measured at 60 mins post-drug administration by pneumotonometer-analysis; assay type: functional; details: 1 h

Chain of Carbonic anhydrase 12 (O43570 whole entry): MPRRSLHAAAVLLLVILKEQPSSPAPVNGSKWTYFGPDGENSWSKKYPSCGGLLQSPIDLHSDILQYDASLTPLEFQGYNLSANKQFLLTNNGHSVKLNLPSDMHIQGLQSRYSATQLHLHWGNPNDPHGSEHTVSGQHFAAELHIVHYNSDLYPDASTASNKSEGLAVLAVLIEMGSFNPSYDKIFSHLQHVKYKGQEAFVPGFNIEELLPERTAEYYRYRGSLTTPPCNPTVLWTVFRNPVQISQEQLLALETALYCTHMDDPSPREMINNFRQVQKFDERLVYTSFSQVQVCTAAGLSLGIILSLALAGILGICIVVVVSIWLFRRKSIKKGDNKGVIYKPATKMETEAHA
Chain of Carbonic anhydrase 1 (P00915 whole entry): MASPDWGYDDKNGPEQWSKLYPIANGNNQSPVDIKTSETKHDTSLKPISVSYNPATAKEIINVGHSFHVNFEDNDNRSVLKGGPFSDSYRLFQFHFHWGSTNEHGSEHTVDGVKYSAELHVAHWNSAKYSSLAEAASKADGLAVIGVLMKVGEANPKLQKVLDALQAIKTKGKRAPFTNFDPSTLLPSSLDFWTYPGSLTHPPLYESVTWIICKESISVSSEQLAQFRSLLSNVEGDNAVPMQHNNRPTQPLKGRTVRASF

Row | Structure (SMILES) | pKi [1] | pKi [3] | pKi [4] | Activity [2] | Activity [5] | Activity [6] | Activity [7]
1 | NS(=O)(=O)c1ccc(NC(=O)NCC(=O)NCC(=O)O)cc1 | 6.37 | 5.12 | 5.80 | 19 mmHg | Active | Active | 
2 | CCCCCCN(CCCCCC)C(=O)Nc1cccc(S(N)(=O)=O)c1 |  |  | 5.68 |  |  |  | 
3 | CC(C)CN(CC(C)C)C(=O)Nc1cccc(S(N)(=O)=O)c1 |  |  | 5.75 |  |  |  | 
4 | NS(=O)(=O)c1cccc(NC(=O)NCCc2ccccc2)c1 | 6.31 | 6.53 | 5.88 |  |  |  | 
5 | NS(=O)(=O)c1cccc(NC(=O)Nc2ccccc2F)c1 | 6.29 | 6.13 | 5.83 |  |  |  | 
6 | CCC(C)NC(=O)Nc1cccc(S(N)(=O)=O)c1 (stereo not given) | 6.22 | 7.16 | 5.67 |  |  |  | 
7 | NS(=O)(=O)c1cccc(NC(=O)Nc2ccccc2)c1 | 6.45 | 6.35 | 5.74 |  |  |  | 
8 | CCN(CC)C(=O)Nc1cccc(S(N)(=O)=O)c1 | 6.43 | 5.54 | 5.76 |  |  |  | 
9 | CC(C)NC(=O)Nc1cccc(S(N)(=O)=O)c1 | 6.21 |  | 5.66 |  |  |  | 
10 | CN(Cc1ccccc1)C(=O)Nc1cccc(S(N)(=O)=O)c1 |  |  | 5.84 |  | Active | 11 mmHg | 
11 | CCCN(CCC)C(=O)Nc1cccc(S(N)(=O)=O)c1 |  |  | 5.66 |  |  |  | 
12 | NS(=O)(=O)c1cccc(NC(=O)Nc2cccc(C(F)(F)F)c2)c1 | 6.31 | 5.69 | 5.80 |  |  |  | 
13 | CCN[C@H]1C[C@H](C)S(=O)(=O)c2sc(S(N)(=O)=O)cc21 [DORZOLAMIDE] |  |  |  |  | 24 mmHg |  | 
14 | CN(C)C(=O)Nc1ccc(S(N)(=O)=O)cc1 | 6.15 | 6.32 | 5.86 |  |  |  | 
15 | COC(=O)CNC(=O)Nc1ccc(S(N)(=O)=O)cc1 |  |  | 5.72 |  |  |  | 
16 | COC(=O)C(CCSC)NC(=O)Nc1cccc(S(N)(=O)=O)c1 (stereo not given) | 6.37 | 5.76 | 5.86 |  |  |  | 
17 | CN(CCc1ccccc1)C(=O)Nc1cccc(S(N)(=O)=O)c1 |  |  | 5.93 |  |  |  | 
18 | CC(C)N(C(=O)Nc1cccc(S(N)(=O)=O)c1)C(C)C |  |  | 5.68 |  |  |  | 
19 | COC(=O)C(Cc1ccccc1)NC(=O)Nc1cccc(S(N)(=O)=O)c1 (stereo not given) | 6.56 | 6.09 | 6.03 |  | Active | 16 mmHg | 

More lines, main results first:

Row | pKi [1] | pKi [3] | pKi [4] | Structure (SMILES) | Activity [2] | Activity [5] | Activity [6] | Activity [7]
20 | 6.46 | 5.14 | 6.16 | COC(=O)CNC(=O)CNC(=O)Nc1cccc(S(N)(=O)=O)c1 |  |  |  | 
21 | 6.56 | 6.75 | 6.27 | NS(=O)(=O)c1cccc(NC(=O)N2CCCCC2)c1 |  |  |  | 
22 |  | 5.22 | 6.08 | COC(=O)CNC(=O)Nc1cccc(S(N)(=O)=O)c1 |  |  |  | 
23 | 6.31 | 5.08 | 6.13 | COC(=O)CCCNC(=O)Nc1cccc(S(N)(=O)=O)c1 |  |  |  | 
24 | 6.23 | 5.28 | 6.08 | COC(=O)C(CC(C)C)NC(=O)Nc1cccc(S(N)(=O)=O)c1 (stereo not given) |  |  |  | 
25 | 6.14 | 7.21 | 6.22 | COC(=O)CCC(NC(=O)Nc1ccc(S(N)(=O)=O)cc1)C(=O)OC (stereo not given) |  |  |  | 
26 | 6.23 | 6.36 | 6.19 | CC(C)NC(=O)Nc1ccc(S(N)(=O)=O)cc1 |  |  |  | 
27 | 7.37 | 7.21 | 6.90 | COC(=O)[C@H](Cc1ccccc1)NC(=O)Nc1ccc(S(N)(=O)=O)cc1 |  | 27 mmHg |  | 36 mmHg
28 | 6.23 | 6.65 | 6.03 | COC(=O)C(CC(C)C)NC(=O)Nc1ccc(S(N)(=O)=O)cc1 (stereo not given) |  |  |  | 
29 | 6.20 | 6.17 | 6.30 | CCC(C)NC(=O)Nc1ccc(S(N)(=O)=O)cc1 (stereo not given) |  |  |  | 
30 |  | 5.08 | 6.07 | COC(=O)CC(NC(=O)Nc1cccc(S(N)(=O)=O)c1)C(=O)OC (stereo not given) |  |  |  | 
